From patent publication US11852971B2, “Compound, photosensitive resin composition including the same, photosensitive resin layer, color filter and display device” (SAMSUNG SDI CO., LTD., priority 2019, dated 2023)

Legend:
[1] = Measurement of the shortest wavelength of full width at half maximum (FWHM) with respect to maximum absorption wavelength (absorption spectrum); format: physicochemical; details: 0.005 wt % in PGMEA; UV-1800
Description: The shortest wavelength of the full width at half maximum (FWHM) with respect to the maximum absorption wavelengths denotes a wavelength having the smallest value (a) among the energy widths (Δλ) of the maximum absorption wavelength (b) in the absorption spectrum of a particular phthalocyanine compound. (Refer to the FIGURE)
Evaluation 1: Measurement of the Shortest Wavelength of Full Width at Half Maximum (FWHM) with respect to Maximum Absorption Wavelength
The compounds according to Synthesis Example 1 to Synthesis Example 21 and Comparative Synthesis Example 1 to Comparative Synthesis Example 6 were prepared at a concentration of 0.005 wt % using a diluting solvent (PGMEA). Absorption spectra were obtained for each of the phthalocyanine compounds according to Synthesis Example 1 to […] and Comparative Synthesis Example 1 to Comparative Synthesis Example 6, and the results are shown in Table 1 (UV-1800, SHTMADZU).

[2] = Solubility measurement in dilution solvent (PGMEA); format: physicochemical; details: PGMEA added to 0.5 g compound, stirred 100 rpm, one hour, 25° C.
Experimental: Evaluation 2: Solubility Measurement Solubility of the compounds according to Synthesis Examples 11 to 21 and Comparative Synthesis Examples 1 to 6 were measured by adding a dilution solvent (PGMEA) to 0.5 g of each compound and respectively stirring the mixtures (MIXROTAR VMR-5, Iuchi Seiei Dou Co.) at 100 rpm for one hour at 25° C., and the results are shown in Table 2. Solubility Evaluation Criteria Greater than or equal to 10 wt % of a compound (a solute) based on a total amount of a diluting solvent was dissolved: ∘ Less than 10 wt % of a compound (a solute) based on a total amount of a diluting solvent was dissolved: X

SMILES | The shortest wavelength (nm) of full width at half maximum (FWHM) with respect to maximum absorption wavelength [1] [nm] | Solubility [2]
CC(C)(C)COc1c(Cl)c(Cl)c2c(c1Cl)/C1=N/c3c4c(Cl)c(OCC(C)(C)C)c(Cl)c(Cl)c4c4[n]3[Zn][n]3/c(c5ccccc5/c3=N/C2=N1)=N\C1=NC(=N\4)/c2c(Cl)c(Cl)c(Cl)c(Cl)c21 [Synthesis Example 12] | 617 | ○
CC(C)(C)COc1c(Cl)c(Cl)c2c(c1Cl)/C1=N/c3c4c(Cl)c(Cl)c(Cl)c(Cl)c4c4[n]3[Zn][n]3/c(c5ccccc5/c3=N/C2=N1)=N\C1=NC(=N\4)/c2c(Cl)c(Cl)c(Cl)c(Cl)c21 [Synthesis Example 13] | 618 | ○
CC(C)(C)COc1c(Cl)c(Cl)c2c(c1Cl)/C1=N/c3c4c(Cl)c(OCC(C)(C)C)c(Cl)c(Cl)c4c4[n]3[Zn][n]3/c(c5ccccc5/c3=N/C2=N1)=N\C1=NC(=N\4)/c2ccccc21 [Synthesis Example 14] | 611 | ○
CC(C)CCOc1c(Cl)c(Cl)c2c(c1Cl)/C1=N/c3c4c(Cl)c(OCCC(C)C)c(Cl)c(Cl)c4c4[n]3[Zn][n]3/c(c5ccccc5/c3=N/C2=N1)=N\C1=NC(=N\4)/c2c(Cl)c(Cl)c(Cl)c(Cl)c21 [Synthesis Example 15] | 617 | ○
CC(C)CCOc1c(Cl)c(Cl)c2c(c1Cl)/C1=N/c3c4c(Cl)c(Cl)c(Cl)c(Cl)c4c4[n]3[Zn][n]3/c(c5ccccc5/c3=N/C2=N1)=N\C1=NC(=N\4)/c2c(Cl)c(Cl)c(Cl)c(Cl)c21 [Synthesis Example 16] | 618 | ○
CC(C)CCOc1c(Cl)c(Cl)c2c(c1Cl)/C1=N/c3c4c(Cl)c(OCCC(C)C)c(Cl)c(Cl)c4c4[n]3[Zn][n]3/c(c5ccccc5/c3=N/C2=N1)=N\C1=NC(=N\4)/c2ccccc21 [Synthesis Example 17] | 611 | ○
CC(C)COc1c(Cl)c(Cl)c2c(c1Cl)/C1=N/c3c4c(Cl)c(OCC(C)C)c(Cl)c(Cl)c4c4[n]3[Zn][n]3/c(c5ccccc5/c3=N/C2=N1)=N\C1=NC(=N\4)/c2c(Cl)c(Cl)c(Cl)c(Cl)c21 [Synthesis Example 18] | 617 | ○
CC(C)COc1c(Cl)c(Cl)c2c(c1Cl)/C1=N/c3c4c(Cl)c(Cl)c(Cl)c(Cl)c4c4[n]3[Zn][n]3/c(c5ccccc5/c3=N/C2=N1)=N\C1=NC(=N\4)/c2c(Cl)c(Cl)c(Cl)c(Cl)c21 [Synthesis Example 19] | 618 | ○
CC(C)COc1c(Cl)c(Cl)c2c(c1Cl)/C1=N/c3c4c(Cl)c(OCC(C)C)c(Cl)c(Cl)c4c4[n]3[Zn][n]3/c(c5ccccc5/c3=N/C2=N1)=N\C1=NC(=N\4)/c2ccccc21 [Synthesis Example 20] | 611 | ○
CC(C)(C)c1ccc(Oc2c(Cl)c(Cl)c3c(c2Cl)/C2=N/c4c5ccccc5c5[n]4[Zn][n]4/c(c6ccccc6/c4=N/C3=N2)=N\C2=NC(=N\5)/c3ccccc32)c(C(C)(C)C)c1 [Synthesis Example 21] | 608 | X (Less than 10 wt % of a compound (a solute) based on a total amount of a diluting solvent was dissolved)
